Laboratory results reported in ChEMBL document CHEMBL1777782, “Indole 5-carboxamide Thumb Pocket I inhibitors of HCV NS5B polymerase with nanomolar potency in cell-based subgenomic replicons (part 2): central amino acid linker and right-hand-side SAR studies” (Bioorg Med Chem Lett, 2011).
≈ marks a conversion by molar mass, not a printed value.

Experiments:
[1] = Tmax in overnight-fasted Sprague-Dawley rat at 10, mg/kg, po administered by oral gavage; format: ADME, organism-based; conditions: in vivo
[2] = system: Hepatitis C virus; experiment: Antiviral activity against Hepatitis C virus genotype 1b infected in human Huh-7 cells assessed as inhibition of viral replication after 72 hrs; format: functional, organism-based, Hepacivirus hominis; conditions: Huh-7, 72 h
[3] = Half life in human liver microsomes at 10 uM
[4] = Selectivity ratio for polio virus RNA-dependent RNA polymerase to HCV 1b NS5B RNA dependent RNA polymerase
[5] = Mean retention time in overnight-fasted Sprague-Dawley rat at 10, mg/kg, po administered by oral gavage; format: ADME, organism-based; conditions: in vivo
[6] = Cmax in overnight-fasted Sprague-Dawley rat at 10, mg/kg, po administered by oral gavage; format: ADME, organism-based; conditions: in vivo
[7] = Permeability across apical to basolateral side in human Caco2 cells; conditions: Caco-2
[8] = physchem; conditions: phosphate buffer, pH 7.2
[9] = Inhibition of HCV 1b NS5B RNA dependent RNA polymerase by scintillation proximity assay; set-up: species or system Hepacivirus hominis
[10] = Selectivity ratio for mammalian DNA-dependent RNA polymerase II to HCV 1b NS5B RNA dependent RNA polymerase
[11] = AUC in overnight-fasted Sprague-Dawley rat at 10, mg/kg, po administered by oral gavage; format: ADME, organism-based; conditions: plasma
[12] = Half life in rat liver microsomes at 10 uM; format: ADME, Microsome

Work on `Cn1c(-c2ccccn2)c(C2CCCCC2)c2ccc(C(=O)NC(C)(C)C(=O)Nc3ccc(/C=C/C(=O)O)cc3)cc21` yielded a Tmax [1] of 15 min.
In the case of `Cn1c(-c2ccccn2)c(C2CCCCC2)c2ccc(C(=O)NC(C)(C)C(=O)Nc3ccc(CCC(=O)O)cc3)cc21`, the EC50 [2] is reported as 267 nM, the half-life at 10 µM ([3]; liver microsomes) is reported as 63 min and the Ratio [4] is reported as > 150. The MRT [5] was 102 min, the Cmax [6] was 630 nM and the Papp A→B [7] was 12.7 ×10⁻⁶ cm/s. The solubility thermodynamic at 24 h [8] was 244 µg/mL (≈ 431 µM), the IC50 [9] was 132 nM and the Ratio [10] was > 150. For the same compound, the Tmax [1] was 30 min and the AUC [11] was 0.81 µM·h.
`Cn1c(-c2ccccn2)c(C2CCCCC2)c2ccc(C(=O)NC3(C(=O)Nc4ccc(/C=C/C(=O)O)cc4)CCC3)cc21` gave a half-life at 10 µM [12] of 17 min, an EC50 [2] of 43 nM and a half-life at 10 µM ([3]; microsomes) of 50 min. The Ratio [4] was > 150, the Cmax [6] was 290 nM and the Papp A→B [7] was 39 ×10⁻⁶ cm/s. For the same compound, the solubility thermodynamic at 24 h [8] was 6 µg/mL (≈ 10.4 µM), the IC50 [9] was 52 nM and the Ratio [10] was > 150. The Tmax [1] was 30 min and the AUC [11] was 0.35 µM·h.
`CN1CC[C@@](NC(=O)c2ccc3c(C4CCCCC4)c(-c4ccccn4)n(C)c3c2)(C(=O)Nc2ccc(/C=C/C(=O)O)cc2)C1` showed a half-life at 10 µM [12] of 18 min, an EC50 [2] of 34 nM and a half-life at 10 µM ([3]; microsomes) of 456 min. The Ratio [4] was > 150, the MRT [5] was 228 min and the Cmax [6] was 320 nM. The Papp A→B [7] was 8.1 ×10⁻⁶ cm/s, the solubility thermodynamic at 24 h [8] was 15 µg/mL (≈ 24.8 µM) and the IC50 [9] was 21 nM. The Ratio [10] was > 150, the Tmax [1] was 30 min and the AUC [11] was 0.81 µM·h.
